# In patent US20020004495A1, “Methods for stimulating bone formation” (priority 1998, published 2002):
# Legend:
# EP4 mRNA in RCT-3 cells = EP4 mRNA in RCT-3 cells (Northern blot); type: cell-based, rat
# Method: (§1) RCT-1 and RCT-3 are clonal cell lines immortalized by SV-40 large T antigen from cells released from fetal rat calvair by a cmbination collagenase/hyaluronidase digestion. RCT-1 cells, derived from cells released during the first 10 minutes of digestion (fraction I), are cultured in RPMI 1640 medium (BRL) with 10% fetal bovine serum and 0.4 mg/ml G418 (BRL). […] RCT-3 cells, immortalized from osteoblast-enriched fraction III cells, are cultured in F-12 medium (BRL) with 5% Fetal bovine serum and 0.4 mg/ml G418. TRAB-11 cells are also immortalized by SV40 large T antigen from adult rat tibia and are cultured in RPMI 1640 medium with 10% FBS and 0.4 mg/ml G418. ROS 17/2.8 rat osteosarcoma cells are cultured in F-12 containing 5% FBS. Osteoblast-enriched (fraction III) primary fetal rat calvaria cells are obtained by collagenase/hyaluronidase digestion of calvariae of 19 day-old rat fetuses. See Rodan et al., Growth stimulation of rat calvaria osteoblastic cells by acidic FGF, Endocrinology, 121, 1919-1923 (1987), which is incorporated by reference herein in its entirety. Cells are released during 30-50 minutes digestion (fraction III) and are cultured in F-12 medium containing 5% FBS. Total RNA is extracted from the tibial metaphysis or diaphysis and calvaria using a guanidinium isothiocyanate-phenol-chloroform method after pulverizing frozen bone samples by a tissue homogenizer. […]
# [1] = tested on: ROS 17/2.8 rat osteosarcoma cells; assay: Intracellular cAMP in ROS 17/2.8 cells; type: cell-based
# Method: as §1, with “FBS.” for “FBS. Total RNA is extracted from the tibial metaphysis or diaphysis and calvaria using a guanidinium isothiocyanate-phenol-chloroform method after pulverizing frozen bone samples by a tissue homogenizer.”
# EP2 mRNA in RP-1 cells = EP2 mRNA in RP-1 cells (Northern blot); type: cell-based, rat
# Method: (§2) RP-1 periosteal cells are spontaneously immortalized from primary cultures of periosteal cells from tibae of 4-week old Sprague-Dawley rats and are cultured in DMEM (BRL, Gaithersburg, Md.) with 10% fetal bovine serum (JRH Biosciences, Lenexa, Kans.). […] Total RNA is extracted from the tibial metaphysis or diaphysis and calvaria using a guanidinium isothiocyanate-phenol-chloroform method after pulverizing frozen bone samples by a tissue homogenizer. See P. Chomczynski et al., Single-step method of RNA isolation by acid guanidium thiocyanate-phenol-chloroform extraction., Analyt Biochem, 162, 156-159 (1987), which is incorporated by reference herein in its entirety. RNA samples ([…]) are separated on 0.9% agarose/formaldehyde gels and transferred onto nylon membranes (Boehringer Mannheim, Germany). Membranes are prehybridized in Hybrisol I (Oncor, Gaithersburg, Md.) and 0.5 mg/ml sonicated salmon sperm DNA (Boehringer) at 42° C. for 3 hours and are hybridized at 42° C. with rat EP2 and mouse EP4 cDNA probes labeled with [^32P]-dCTP (Amersham, Buckinghamshire, UK) by random priming using the rediprime kit (Amersham). After hybridization, membranes are washed 4 times in 2×SSC+0.1% SDS at room temperature for a total of 1 hour and once with 0.2×SSC+0.1% SDS at 55° C. for 1 hour and then exposed to Kodak XAR 2 film at −70° C. using intensifying screens. […]
# EP2 mRNA in bone tissue = assay: EP2 mRNA in rat bone tissue after systemic administration (Northern blot); type: in vivo; conditions: rats, 3-6 mg/Kg
# Method: For mRNA localization experiments, 5-week old Sprague-Dawley rats (Charles River) are euthanized by CO2, their tibiae and calvariae are excised, cleaned of soft tissues and frozen immediately in liquid nitrogen. For EP4 regulation experiments, 6-week old rats are given a single injection of either vehicle (7% ethanol in sterile water) or an anabolic dose of PGE2 (Cayman Chemical, Ann Arbor, Mich.), 3-6 mg/kg in the same vehicle) intraperitoneally. Animals are euthanized at several time points post-injection and their tibiae and calvariae, as well as samples from lung and kidney tissues are frozen in liquid nitrogen. Total RNA is extracted from the tibial metaphysis or diaphysis and calvaria using a guanidinium isothiocyanate-phenol-chloroform method after pulverizing frozen bone samples by a tissue homogenizer. See P. Chomczynski et al., Single-step method of RNA isolation by acid guanidium thiocyanate-phenol-chloroform extraction., Analyt Biochem, 162, 156-159 (1987), which is incorporated by reference herein in its entirety. RNA samples ([…]) are separated on 0.9% agarose/formaldehyde gels and transferred onto nylon membranes (Boehringer Mannheim, Germany). […]
# [2] = tested on: EP4 mRNA in tibiae and calvariae; assay: EP4 mRNA in rat bone tissue after systemic administration (Northern blot); type: in vivo
# Method: For mRNA localization experiments, 5-week old Sprague-Dawley rats (Charles River) are euthanized by CO2, their tibiae and calvariae are excised, cleaned of soft tissues and frozen immediately in liquid nitrogen. For EP4 regulation experiments, 6-week old rats are given a single injection of either vehicle (7% ethanol in sterile water) or an anabolic dose of PGE2 (Cayman Chemical, Ann Arbor, Mich.), 3-6 mg/kg in the same vehicle) intraperitoneally. Animals are euthanized at several time points post-injection and their tibiae and calvariae, as well as samples from lung and kidney tissues are frozen in liquid nitrogen. Total RNA is extracted from the tibial metaphysis or diaphysis and calvaria using a guanidinium isothiocyanate-phenol-chloroform method after pulverizing frozen bone samples by a tissue homogenizer. See P. Chomczynski et al., Single-step method of RNA isolation by acid guanidium thiocyanate-phenol-chloroform extraction., Analyt Biochem, 162, 156-159 (1987), which is incorporated by reference herein in its entirety. RNA samples ([…]) are separated on 0.9% agarose/formaldehyde gels and transferred onto nylon membranes (Boehringer Mannheim, Germany). Membranes are prehybridized in Hybrisol I (Oncor, Gaithersburg, Md.) and 0.5 mg/ml sonicated salmon sperm DNA (Boehringer) at 42° C. for 3 hours and are hybridized at 42° C. with rat EP2 and mouse EP4 cDNA probes labeled with [^32P]-dCTP (Amersham, Buckinghamshire, UK) by random priming using the rediprime kit (Amersham). After hybridization, membranes are washed 4 times in 2×SSC+0.1% SDS at room temperature for a total of 1 hour and once with 0.2×SSC+0.1% SDS at 55° C. for 1 hour and then exposed to Kodak XAR 2 film at −70° C. using intensifying screens. After developing the films, bound probes are removed twice with 0.1% SDS at 80° C. and membranes are hybridized with a human GAPDH (Glyceraldehyde 3-Phosphate Dehydrogenase) cDNA probe (purchased from Clontech, Palo Alto, Calif.) for loading control. To examine if PGE2 regulates EP4 mRNA levels in vivo in bone tissue, […] male rats are injected with PGE2 (3-6 mg/Kg).
# RCT-3 cells = assay: Intracellular cAMP in RCT-3 cells; type: cell-based, rat
# Method: as §1, with “FBS.” for “FBS. Total RNA is extracted from the tibial metaphysis or diaphysis and calvaria using a guanidinium isothiocyanate-phenol-chloroform method after pulverizing frozen bone samples by a tissue homogenizer.”
# TRAB-11 cells = assay: Intracellular cAMP in TRAB-11 cells; type: cell-based, rat
# Method: as §1, with “FBS.” for “FBS. Total RNA is extracted from the tibial metaphysis or diaphysis and calvaria using a guanidinium isothiocyanate-phenol-chloroform method after pulverizing frozen bone samples by a tissue homogenizer.”
# [3] = tested on: EP4 mRNA in RP-1 periosteal cells; assay: EP4 mRNA in RP-1 periosteal cells (Northern blot); type: cell-based, rat; conditions: 10^-6 M
# Method: as §2
# [4] = tested on: EP4 expression in bone marrow cells; assay: In situ hybridization of EP4 in rat tibia; type: in vivo; conditions: rats, single anabolic dose, tibial metaphysis
# Method: For mRNA localization experiments, 5-week old Sprague-Dawley rats (Charles River) are euthanized by CO2, their tibiae and calvariae are excised, cleaned of soft tissues and frozen immediately in liquid nitrogen. For EP4 regulation experiments, 6-week old rats are given a single injection of either vehicle (7% ethanol in sterile water) or an anabolic dose of PGE2 (Cayman Chemical, Ann Arbor, Mich.), 3-6 mg/kg in the same vehicle) intraperitoneally. Animals are euthanized at several time points post-injection and their tibiae and calvariae, as well as samples from lung and kidney tissues are frozen in liquid nitrogen.
# Frozen tibiae are sectioned coronally at […] thickness and sections are mounted on charged slides (Probe On Plus, Fisher Scientific, Springfield, N.J.) and are kept at −70° C. until hybridization. cRNA probes are labeled with ^35S-UTPgS (ICN, Costa Mesa, Calif.) using a Riboprobe II kit (Promega Madison, Wis.). Hybridization is performed overnight at 50° C. […]
# In situ hybridization is used in order to localize cells expressing EP4 in bone In control experiment (vehicle-injected) rats, low expression of EP4 is detected in bone marrow cells. […]
compound,measurement,setting,value
"CCCCC[C@H](O)/C=C/[C@H]1[C@H](O)CC(=O)[C@@H]1C/C=C\CCCC(=O)O [PGE2, prostaglandin E2]",effect on EP4 mRNA levels,EP4 mRNA in RCT-3 cells,no effect
same,effect on intracellular cAMP,[1],no effect
same,induction of EP2 mRNA,EP2 mRNA in RP-1 cells,does not induce
same,induction of EP2 mRNA in bone tissue,EP2 mRNA in bone tissue,does not induce
same,effect on EP4 mRNA levels in the tibial diaphysis,"[2]; rats, 3-6 mg/Kg",rapidly increased
same,time of peak of EP4 mRNA levels in the tibial diaphysis after injection,"[2]; rats, 3-6 mg/Kg",2 h
same,effect on expression of EP4 in tibiae and calvariae,"[2]; young adult rats, 3-6 mg/kg",upregulates
same,time of peak of EP4 expression in tibiae and calvariae,"[2]; young adult rats, 3-6 mg/kg",1 to 2 h
same,effect on intracellular cAMP,RCT-3 cells,markedly induced
same,effect on intracellular cAMP,TRAB-11 cells,markedly induced
same,effect on EP4 mRNA levels,[3],rapidly increases
same,time of peak of EP4 mRNA levels after treatment,[3],2 h
same,expression of EP4 in bone marrow cells (in situ hybridization),[4],increasesd the expression
